# Assay: High fat diet induced obesity (DIO) mouse model
# Type: in vivo, C57CL/6J mice
# Conditions: for Total Weight / Total Body Weight: in g (unit assumed); for Feed intake: orlistat 40 mg/kg/day oral
# Description: C57CL/6J mice aged 4-6 weeks (Korea Research Institute of Bioscience & Biotechnology, Ohchang, Korea) were housed in Polycarbonate cages (five mice per cage) in a room with a 12 hr:12 hr light-dark cycle and an ambient temperature of 24° C. All the mice were fed a commercial chow diet for 1 week after arrival in the animal facility. Mice were then divided into normal and obesity groups and fed with normal diet (ND) and high fat diets (HFD) respectively. The HFD group was divided into multiple treatment groups: a high fat diet vehicle group (HFD), an orlistat (purchased as OTC drug Alli®) positive control treatment group (ORI, 40 mg/kg of animal weight, 2 times/day) and optionally a sibutramine positive control treatment group (10 mg/kg, 1 time/day). The HFD contained 340 g of fat/kg of HFD (310 g lard plus 30 g soybean oil; Harlan Laboratories, USA). The HFD was formulated to provide 60% of the total energy generated by the diet from fat by replacing carbohydrate energy with lard and soybean oil, whereas the normal diet (ND) group was fed a diet providing only 18% of the total diet energy from fat(Harlan Laboratories, USA).
# Body weight was measured once each week and feed intake was measured twice per week. At the end of the experimental period, following a 12 hr. fasting period, the animals were anesthetized with ether, and blood was drawn from the abdominal vein. Liver and kidney and adipose tissues (epididymal, retroperitoneal, perirenal adipose tissues) were removed from each animal, rinsed with physiological saline, and weighed. Serum concentrations of glucose, total cholesterol, triglycerides, and LDL-cholesterol were determined using automatic analyzer (INTEGRA 400, Roche, Germany). Statistical significance of test results was measured using the Student's t-test.
# [1] = DIO mice, week 2, G1 = 1,100 mg/kg orally twice a day
# [2] = DIO mice, week 2, G1 = 1,200 mg/kg orally twice a day
# [3] = DIO mice, week 3, G1 = 800 mg/kg orally twice a day
# [4] = DIO mice, week 3, G1 = 1,100 mg/kg orally twice a day
# [5] = DIO mice, week 3, G1 = 1,200 mg/kg orally twice a day
# [6] = DIO mice, week 4, G1 = 800 mg/kg orally twice a day
# [7] = DIO mice, week 4, G1 = 1,100 mg/kg orally twice a day
# [8] = DIO mice, week 4, G1 = 1,200 mg/kg orally twice a day
# [9] = DIO mice, week 5, G1 = 800 mg/kg orally twice a day
# [10] = DIO mice, week 5, G1 = 1,100 mg/kg orally twice a day
# [11] = DIO mice, week 5, G1 = 1,200 mg/kg orally twice a day
# [12] = DIO mice, week 6, G1 = 800 mg/kg orally twice a day
# [13] = DIO mice, week 6, G1 = 1,100 mg/kg orally twice a day
# [14] = DIO mice, week 6, G1 = 1,200 mg/kg orally twice a day
# [15] = DIO mice, week 7, G1 = 800 mg/kg orally twice a day
# [16] = DIO mice, week 7, G1 = 1,100 mg/kg orally twice a day
# [17] = DIO mice, week 7, G1 = 1,200 mg/kg orally twice a day
# [18] = DIO mice, week 8, G1 = 800 mg/kg orally twice a day
# [19] = DIO mice, week 8, G1 = 1,100 mg/kg orally twice a day
# [20] = DIO mice, week 8, G1 = 1,200 mg/kg orally twice a day
# [21] = Liver pathology, DIO mice, G1 = 800 mg/kg orally twice a day
# [22] = Liver pathology, DIO mice, G1 = 1,100 mg/kg orally twice a day
# [23] = ORI 40 mg/kg, DIO mice, end of study
# [24] = ORI 40 mg/kg, mice fed a high fat diet (Table 44)
# [25] = ORI 40 mg/kg, mice fed high fat diet
# [26] = ORI, DIO mice, blood at end of study
# [27] = blood at end of study, orlistat 40 mg/kg oral
# [28] = liver pathology score, DIO mice, combination (10:1) 1100 mg/kg twice a day
# [29] = liver pathology score, mice fed a high fat diet, Mutamba fractions 250 mg/kg oral 2 times per day, mean
# [30] = liver pathology score, mice fed a high fat diet, Mutamba fractions 250 mg/kg oral 2 times per day, mean (table printed twice)
compound,measurement,setting,value
"CCCCCCCCCCC[C@@H](C[C@@H]1OC(=O)[C@H]1CCCCCC)OC(=O)[C@H](CC(C)C)NC=O [ORI, orlistat]",Total Weight,"DIO mice, week 2, G1 = 800 mg/kg orally twice a day",34.08
same,Weight Gain,[1],−6.14
same,Total Weight,[1],34.08
same,Weight Gain,[2],−6.14
same,Total Body Weight,[2],34.08
same,Total Weight,"DIO mice, week 2, ORI group, mean, Table 134",31.91
same,Weight Gain,"DIO mice, week 2, ORI group, mean, Table 135",−6.69
same,Total Body Weight,"DIO mice, week 2, ORI group, mean, Table 145",34.08
same,Weight Gain,"DIO mice, week 2, ORI group, mean, Table 146",−6.14
same,Weight Gain,[3],−4.91
same,Total Weight,[3],35.32
same,Weight Gain,[4],−4.91
same,Total Weight,[4],35.32
same,Weight Gain,[5],−4.91
same,Total Body Weight,[5],35.32
same,Total Weight,"DIO mice, week 3, ORI group, mean, Table 134",33.34
same,Weight Gain,"DIO mice, week 3, ORI group, mean, Table 135",−5.27
same,Total Body Weight,"DIO mice, week 3, ORI group, mean, Table 145",35.32
same,Weight Gain,"DIO mice, week 3, ORI group, mean, Table 146",−4.91
same,Weight Gain,[6],−3.84
same,Total Weight,[6],36.38
same,Weight Gain,[7],−3.84
same,Total Weight,[7],36.38
same,Weight Gain,[8],−3.84
same,Total Body Weight,[8],36.38
same,Total Weight,"DIO mice, week 4, ORI group, mean, Table 134",35.14
same,Weight Gain,"DIO mice, week 4, ORI group, mean, Table 135",−3.47
same,Total Body Weight,"DIO mice, week 4, ORI group, mean, Table 145",36.38
same,Weight Gain,"DIO mice, week 4, ORI group, mean, Table 146",−3.84
same,Weight Gain,[9],−2.57
same,Total Weight,[9],37.65
same,Weight Gain,[10],−2.57
same,Total Weight,[10],37.65
same,Weight Gain,[11],−2.57
same,Total Body Weight,[11],37.65
same,Total Weight,"DIO mice, week 5, ORI group, mean, Table 134",36.27
same,Weight Gain,"DIO mice, week 5, ORI group, mean, Table 135",−2.34
same,Total Body Weight,"DIO mice, week 5, ORI group, mean, Table 145",37.65
same,Weight Gain,"DIO mice, week 5, ORI group, mean, Table 146",−2.57
same,Weight Gain,[12],−1.47
same,Total Weight,[12],38.75
same,Weight Gain,[13],−1.47
same,Total Weight,[13],38.75
same,Weight Gain,[14],−1.47
same,Total Body Weight,[14],38.75
same,Total Weight,"DIO mice, week 6, ORI group, mean, Table 134",37.52
same,Weight Gain,"DIO mice, week 6, ORI group, mean, Table 135",−1.08
same,Total Body Weight,"DIO mice, week 6, ORI group, mean, Table 145",38.75
same,Weight Gain,"DIO mice, week 6, ORI group, mean, Table 146",−1.47
same,Weight Gain,[15],−0.26
same,Total Weight,[15],39.96
same,Weight Gain,[16],−0.26
same,Total Weight,[16],39.96
same,Weight Gain,[17],−0.26
same,Total Body Weight,[17],39.96
same,Total Weight,"DIO mice, week 7, ORI group, mean, Table 134",38.62
same,Weight Gain,"DIO mice, week 7, ORI group, mean, Table 135",0.02
same,Total Body Weight,"DIO mice, week 7, ORI group, mean, Table 145",39.96
same,Weight Gain,"DIO mice, week 7, ORI group, mean, Table 146",−0.26
same,Weight Gain,[18],−0.23
same,Total Weight,[18],39.99
same,Weight Gain,[19],−0.23
same,Total Weight,[19],39.99
same,Weight Gain,[20],−0.23
same,Total Body Weight,[20],39.99
same,Total Body Weight,"DIO mice, week 8, ORI group, mean, Table 145",39.99
same,Weight Gain,"DIO mice, week 8, ORI group, mean, Table 146",−0.23
same,Hepatocellular ballooning (0-2),[21],0.33
same,Lobular Inflammation (0-3),[21],1.50
same,NASH (sum),[21],2.17
same,Steatosis (0-3),[21],0.33
same,Hepatocellular ballooning (0-2),[22],0.33
same,Lobular Inflammation (0-3),[22],1.50
same,NSAH (sum),[22],2.17
same,Steatosis (0-3),[22],0.33
same,Organ Weight: Epididymal Fat,[23],1.92 g
same,Organ Weight: Liver,[23],1.12 g
same,Organ Weight: Perirenal Fat,[23],0.33 g
same,Organ Weight: Retroperitoneal Fat,[23],0.47 g
same,Organ Weight: Total Fat,[23],2.73 g
same,Average Body Weight Gain,[24],-0.031 g/day
same,Average Food Intake,[24],2.711 g/day
same,Food Efficiency Ratio (FER),[24],−0.011
same,Average Body Weight Gain,[25],-0.031 g/day
same,Average Food Intake,[25],2.711 g/day
same,Food Efficiency Ratio (FER),"ORI 40 mg/kg, mice fed high fat diet, body weight gain (g/day)/food intake (g/day)",−0.011
same,Total Body Weight,"ORI 40 mg/kg, week 0",42.76
same,Total Body Weight,"ORI 40 mg/kg, week 1",38.73
same,Total Body Weight,"ORI 40 mg/kg, week 2",35.09
same,Total Body Weight,"ORI 40 mg/kg, week 3",35.66
same,Total Body Weight,"ORI 40 mg/kg, week 4",37.28
same,Total Body Weight,"ORI 40 mg/kg, week 5",38.57
same,Total Body Weight,"ORI 40 mg/kg, week 6",40.03
same,Total Body Weight,"ORI 40 mg/kg, week 7",40.91
same,F-Glu (fasting glucose),[26],222.43 mg/dL
same,LDL-C (LDL-cholesterol),[26],4.27 mg/dL
same,T-Chol (total cholesterol),[26],134.57 mg/dL
same,ALT,[27],21.83 U/L
same,AST,[27],65.65 U/L
same,LDL-C,[27],4.03 mg/dL
same,T-chol,[27],137.33 mg/dL
same,TG,[27],27.83 mg/dL
same,Feed intake,day 4,2.23 g/day
same,Feed intake,day 7,2.56 g/day
same,Feed intake,day 11,3.01 g/day
same,Feed intake,day 14,3.18 g/day
same,Feed intake,day 21,3.27 g/day
same,Feed intake,day 25,3.27 g/day
same,Feed intake,day 28,3.44 g/day
same,Feed intake,day 32,3.27 g/day
same,Feed intake,day 35,3.35 g/day
same,Feed intake,day 39,3.17 g/day
same,Feed intake,day 42,3.43 g/day
same,Feed intake,day 46,3.18 g/day
same,Feed intake,day 49,3.54 g/day
same,Feed intake,day 53,3.17 g/day
same,weight decrease,end of the 8 week treatment,0.23 gram
same,NASH (sum),"liver pathology score sum, DIO mice, combination (10:1) 1100 mg/kg twice a day",3.40
same,Hepatocellular ballooning (0-2),[28],1.00
same,Lobular Inflammation (0-3),[28],1.40
same,Steatosis (0-3),[28],1.00
same,Hepatocellular ballooning (0-2),[29],0.80
same,Lobular Inflammation (0-3),[29],1.60
same,Steatosis (0-3),[29],1.00
same,Hepatocellular ballooning (0-2),[30],0.80
same,Lobular Inflammation (0-3),[30],1.60
same,Steatosis (0-3),[30],1.00
same,NSAH (sum),"liver pathology, sum of scores, mice fed a high fat diet, Mutamba fractions 250 mg/kg oral 2 times per day, mean",3.40
same,NSAH (sum),"liver pathology, sum of scores, mice fed a high fat diet, Mutamba fractions 250 mg/kg oral 2 times per day, mean (table printed twice)",3.40

# Source: patent publication US20240024403A1, “Compositions and Methods for Managing Weight” (Unigen, Inc., priority 2012, published 2024)
